The substances below were run on Fusarium graminearum. Conditions: Table 2B (Dm-AMP1 based libraries); improvement compared to reference defensin protein (Rs-AFP2 for Table 2B [sic]).
Type: cell-based

Substance | Activity (1): antifungal activity of the NP against Fusarium graminearium
NLCERASLTWTGNCGNTKHCDTQCKNWEGAKHGACHVRNGKWKCFCYFNC (Defensin like) [L3-02] | ++ (++ indicates a >5- to 10-fold improvement)
ELCERASKTWTGNCGNTKHCDNQCRSWESAAHGACHKRSGKWKCFCYFNC (Defensin like) [L3-87] | ++ (++ indicates a >5- to 10-fold improvement)
NLCERASKTWTGNCGNTKHCDTQCKNWEGAKHGACHVRNGKWKCFCYFNC (Defensin like) [L6-77] | ++ (++ indicates a >5- to 10-fold improvement)
NLCERASKTWTGNCGNTKHCDNQCKNWEGAKHGACHVRNGKHKCFCYFNC (Defensin like) [L6-08] | +++ (+++ indicates a >10-fold improvement)
NLCERASKTWTGNCGNTKHCDTQCKSWEGAKHGACHVRSGKHKCFCYFNC (Defensin like) [L5-36] | + (+ indicates a 1- to 5-fold improvement in activity compared to a reference defensin protein)
NLCEKASKTWTGNCGNTKHCDNQCRSWEGAKHGACMKRSGKWKCFCYFNC [L10-76] | ++ (++ indicates a >5- to 10-fold improvement)
NLCERASKTWTGNCGNTKHCDTQCRSWEGAKHGACHVRNGKWKCFCYFNC (Defensin like) [L6-62] | + (+ indicates a 1- to 5-fold improvement in activity compared to a reference defensin protein)
NLCERASKTWTGNCGNTKHCDNQCRNWEGAAHGACHKRNGKWKCFCYFNC (Defensin like) [L6-45] | ++ (++ indicates a >5- to 10-fold improvement)
NLCERASKTWTGNCGNTKHCDTQCKSWEGAKHGACHVRNGKWKCFCYFNC (Defensin like) [L6-52] | + (+ indicates a 1- to 5-fold improvement in activity compared to a reference defensin protein)
NLCERASKTWTGNCGNTKHCDNQCKSWEGAKHGACHVRNGKWKCFCYFNC (Defensin like) [L10-64] | ++ (++ indicates a >5- to 10-fold improvement)
NLWEKASLTWTGNCGNTKHCDNQCKNWESAAHGACHKRSGKWMCFCYFNC (Defensin like) [L4-1] | + (+ indicates a 1- to 5-fold improvement in activity compared to a reference defensin protein)
NLCERASKTWTGNCGNTKHCDTQCRNWEGARHGACHVRNGKWKCFCYFNC (Defensin like) [L10-71] | ++ (++ indicates a >5- to 10-fold improvement)
NLCERASKTWSSNCGNTKHCDTQCKNWEGAKHGACHVRNGKWKCFCYFNC (Defensin like) [L10-60] | ++ (++ indicates a >5- to 10-fold improvement)
NLCERASKTWTGNCGNTKHCDTQCRSWEGAKHGACHVRNGKHKCFCYFNC (Defensin like) [L6-42] | + (+ indicates a 1- to 5-fold improvement in activity compared to a reference defensin protein)
NLCERASKTWTGNCGNTKHCDNQCRNWEGAKHGACHVRNGKWKCFCYFNC (Defensin like) [L6-07] | +++ (+++ indicates a >10-fold improvement)
NLCERASKTWTGNCGNTKHCDTQCRNWEGAKHGACHVRNGKWKCFCYFNC (Defensin like) [L5-46] | + (+ indicates a 1- to 5-fold improvement in activity compared to a reference defensin protein)
NLCEKASKTWTGNCGNTKHCDNQCKNWESAAHGACHKRNGKWKCFCYFNC (Defensin like) [L3-79] | ++ (++ indicates a >5- to 10-fold improvement)

Same assay, conditions: Table 2C (mixed diversity library); improvement compared to reference defensin protein DmAMP

Substance | Activity (1): antifungal activity of the NP against Fusarium graminearium
DGVKLCERASKTWSGHCGNTKHCDNQCRSWEGAKHGACHVRSGKHKCFCYFNC (Defensin like) [L7-213] | ++ (++ indicates a >5- to 10-fold improvement)
DGVKLCERPSQTWTGHCGNTKHCDKQCRNWEGAAHGACHKRSGKWKCFCYFNC (Defensin like) [L7-83] | ++ (++ indicates a >5- to 10-fold improvement)
DGVKLCERASKTWTGNCGNTKHCDNQCKSWEGAKHGACHVRNGKHKCFCYFNC (Defensin like) [L7-76] | ++ (++ indicates a >5- to 10-fold improvement)
DGVKLCERPSQTWTGNCGNTKHCDKQCKSWEGAKHGACHKRNGKWKCFCYFNC (Defensin like) [L7-99] | + (+ indicates a 1- to 5-fold improvement in activity compared to a reference defensin protein)
--QKLCEKASKTWTGNCGNTKHCDKQCRSWEKAKHGACHVRNGKWKCFCYFNC (Defensin like) [L7-59] | ++ (++ indicates a >5- to 10-fold improvement)
---NLCERPSKTWTGHCGNTKHCDKQCKSWEGAKHGACHVRSGKWKCFCYFNC (Defensin like) [L7-26] | ++ (++ indicates a >5- to 10-fold improvement)
--QKLCEKASQTWTGHCGNTKHCDNQCRNWEKAAHGACHVRNGKWKCFCYFNC (Defensin like) [L7-19] | + (+ indicates a 1- to 5-fold improvement in activity compared to a reference defensin protein)
--QKLCERPSQTWTGHCGNTKHCDKQCKNWEGAKHGACHVRNGKWKCFCYFNC (Defensin like) [L7-89] | + (+ indicates a 1- to 5-fold improvement in activity compared to a reference defensin protein)
DGVKLCERASKTWSGHCGNTKHCDKQCKNWEKAKHGACHKRSGKWKCFCYFNC (Defensin like) [L7-219] | + (+ indicates a 1- to 5-fold improvement in activity compared to a reference defensin protein)
--QKLCERPSQTWTGHCGNTKHCDTQCKSWEGAKHGACHKRNGKWKCFCYFNC (Defensin like) [L7-44] | + (+ indicates a 1- to 5-fold improvement in activity compared to a reference defensin protein)
--QKLCERASKTWTGHCGNTKHCDKQCKNWEKAKHGACHVRNGKWKCFCYFNC (Defensin like) [L7-34] | + (+ indicates a 1- to 5-fold improvement in activity compared to a reference defensin protein)
DGVKLCERASQTWSGHCGNTKHCDKQCKNWEKAAHGACHVRSGKWKCFCYFNC (Defensin like) [L7-14] | ++ (++ indicates a >5- to 10-fold improvement)
---NLCERASKTWSGHCGNTKHCDNQCRNWEGAKHGACHKRNGKWKCFCYFNC (Defensin like) [L7-11] | ++ (++ indicates a >5- to 10-fold improvement)
DGVKLCERPSQTWSGNCGNTKHCDKQCRNWEKAKHGACHKRNGKWKCFCYFNC (Defensin like) [L7-123] | + (+ indicates a 1- to 5-fold improvement in activity compared to a reference defensin protein)

Reference: patent US7785828B1 (priority 2003, dated 2010)
